The target in one data set is GTPase KRas (Homo sapiens, UniProt P01116, G13D). The data set can be described thus: Inhibition of Biotinylated KRAS G13D mutant (unknown origin) incubated for 20 mins in presence of BODIPY-GDP by HTRF assay.
The nature of data set [1]: Selectivity ratio of IC50 for inhibition of Biotinylated KRAS G13D mutant (unknown origin) to IC50 for inhibition of Biotinylated wild type KRAS (unknown origin).
Data set [2] can be described thus: Half life in CD-1 mouse at 1 mg/kg,iv measured upto 9 hrs by LC-MS/MS analysis. It counts as ADME, organism-based. Conditions: in vivo.
Data set [3] can be described thus: Volume of distribution at steady state in CD-1 mouse at 1 mg/kg,iv measured upto 9 hrs by LC-MS/MS analysis. In kind it is ADME, organism-based. Conditions: in vivo.
The test system of another data set is HCT-116. The data set can be described thus: Antiproliferative activity against human HCT-116 cells assessed as cell growth inhibition incubated for 7 days by Cell Titer-Glo luminescent assay. Particulars: HCT-116, 168 h. In kind it is functional, cell-based. (In ATP-based viability assays light output follows the ATP content of the culture.)
A short description of data set [4]: Dissociation constant, pKa of compound. In kind it is physicochemical.

The values below come from ChEMBL document CHEMBL5329224, “Structure-Based Design and Evaluation of Reversible KRAS G13D Inhibitors” (ACS Med Chem Lett, 2024).

GTPase KRas, sequence (P01116 whole entry G13D): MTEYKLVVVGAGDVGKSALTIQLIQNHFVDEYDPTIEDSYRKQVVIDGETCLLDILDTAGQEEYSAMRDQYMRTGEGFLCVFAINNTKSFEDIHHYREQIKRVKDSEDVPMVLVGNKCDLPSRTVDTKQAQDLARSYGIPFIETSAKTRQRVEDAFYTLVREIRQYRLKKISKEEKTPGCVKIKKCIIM

A word on the IC50: it is the concentration that gives 50% inhibition. `Cc1cc(N)nc(-c2cc3nc(OC[C@@H]4CCCN4C)nc4c3c(c2Cl)OC[C@@H]2CN(C(=O)/C=C/c3nccc5c3CNCC5)CCN42)c1C(F)(F)F`: the IC50 on GTPase KRas came out at 0.18 µM. For the same compound, the Ratio IC50 in data set [1] is 6.1.

Regarding `Cc1cc(N)nc(-c2cc3nc(OC[C@@H]4CCCN4C)nc4c3c(c2Cl)OC[C@@H]2CN(C(=O)CC[C@@]3(C)CCCN3)CCN42)c1C(F)(F)F`, the IC50 on GTPase KRas was found to be 1.9 µM. In data set [1], the Ratio IC50 was found to be 2.4.

For `Cc1cc(N)nc(-c2cc3nc(OC[C@@H]4CCCN4C)nc4c3c(c2Cl)OC[C@@H]2CN(C(=O)CC3CC5(CCC5)CN3)CCN42)c1C(F)(F)F` (mixture of isomers), the IC50 on GTPase KRas stood at 9 µM. In addition, the Ratio IC50 in data set [1] is 1.1.

The term Vdss denotes a proportionality between amount in the body and measured concentration, not a real space. `C=C1CN2CCC[C@@]2(COc2nc3c4c(c(Cl)c(-c5nc(N)cc(C)c5C(F)(F)F)c(F)c4n2)OC[C@@H]2CN(C(=O)/C=C/c4nccc5c4CNCC5)CCN32)C1` gave a t1/2 in data set [2] of 3.2 h. The compound further came in with a Vdss in data set [3] of 0.42 L/kg. For the same compound, the IC50 with HCT-116 is 6.1 µM; at GTPase KRas, 0.0015 µM.

By pKa is commonly meant the negative logarithm of the acid dissociation constant. `C=C1CN2CCC[C@@]2(COc2nc(N3CCN(C(=O)/C=C/c4cc(CNC)ccn4)C[C@@H]3C)c3cc(Cl)c(-c4nc(N)cc(C)c4C(F)(F)F)c(F)c3n2)C1` had a pKa in data set [4] of 8.4. In addition, the IC50 on GTPase KRas stood at 0.53 µM. In data set [1], the Ratio IC50 was 5.7.

Consider `Cc1cc(N)nc(-c2cc3nc(OC[C@@H]4CCCN4C)nc4c3c(c2Cl)OC[C@@H]2CN(C(=O)C3(N)CC3)CCN42)c1C(F)(F)F`, for which the IC50 at GTPase KRas amounted to 0.55 µM. Moreover, the Ratio IC50 in data set [1] turned out to be 1.8.

Take `Cc1cc(N)nc(-c2c(Cl)c3c4c(ncnc4c2F)N2CCN(C(=O)/C=C/c4nccc5c4CNCC5)C[C@H]2CO3)c1C(F)(F)F`: the IC50 on GTPase KRas was 2.7 µM. Further, in data set [1], the Ratio IC50 is 5.9.

Compound `C=C1CN2CCC[C@@]2(COc2nc(N3CCN(C(=O)/C=C/c4cc(CN5CCOCC5)ccn4)C[C@@H]3C)c3cc(Cl)c(-c4nc(N)cc(C)c4C(F)(F)F)c(F)c3n2)C1` came in with a pKa in data set [4] of 5.4. Besides, the IC50 on GTPase KRas worked out at 0.0041 µM. Further, the Ratio IC50 in data set [1] was 1.2.

Regarding `Cc1cc(N)nc(-c2cc3nc(OC[C@@H]4CCCN4C)nc4c3c(c2Cl)OC[C@@H]2CN(C(=O)CC[C@@H]3CCCCN3)CCN42)c1C(F)(F)F`, on GTPase KRas, the IC50 came to 1.7 µM. In data set [1], the Ratio IC50 came out at 2.5.

Consider `Cc1cc(N)nc(-c2cc3nc(OC[C@@H]4CCCN4C)nc4c3c(c2Cl)OC[C@@H]2CN(C(=O)CCC3CCNC3)CCN42)c1C(F)(F)F` (mixture of isomers), for which the IC50 at GTPase KRas amounted to 2.1 µM. Besides, in data set [1], the Ratio IC50 is 2.

As for `C=C1CN2CCC[C@@]2(COc2nc3c4c(c(Cl)c(-c5nc(N)cc(C)c5C(F)(F)F)cc4n2)OC[C@@H]2CN(C(=O)/C=C/c4nccc5c4CN(C)CC5)CCN32)C1`, the IC50 at GTPase KRas is 0.049 µM. The Ratio IC50 in data set [1] came out at 0.88.

On to `Cc1cc(N)nc(-c2cc3nc(OC[C@@H]4CCCN4C)nc4c3c(c2Cl)OC[C@@H]2CN(C(=O)C3CCNCC3)CCN42)c1C(F)(F)F`, for which the IC50 at GTPase KRas stood at 3.2 µM. Further, the Ratio IC50 in data set [1] stood at 2.2.

As for `Cc1cc(N)nc(-c2cc3nc(OC[C@@H]4CCCN4C)nc4c3c(c2Cl)OC[C@@H]2CN(C(=O)C[C@@H]3CCNC3)CCN42)c1C(F)(F)F`, the half-maximal inhibitory concentration (IC50) on GTPase KRas came out at 2.6 µM. The Ratio IC50 in data set [1] came out at 2.1.

Turning to `Cc1cc(N)nc(-c2cc3nc(OC[C@@H]4CCCN4C)nc4c3c(c2Cl)OC[C@@H]2CN(C(=O)[C@H](C)N(C)C)CCN42)c1C(F)(F)F`, the IC50 on GTPase KRas stood at 8.2 µM. The Ratio IC50 in data set [1] turned out to be 0.94.

Turning to `C=C1CN2CCC[C@@]2(COc2nc(N3CCN(C(=O)/C=C/c4cccc5c4CNC(C)(C)C5)C[C@@H]3C)c3cc(Cl)c(-c4nc(N)cc(C)c4C(F)(F)F)c(F)c3n2)C1`, the IC50 at GTPase KRas is 0.46 µM. Also, in data set [1], the Ratio IC50 was 16.

With `Cc1cc(N)nc(-c2cc3nc(OC[C@@H]4CCCN4C)nc4c3c(c2Cl)OC[C@@H]2CN(C(=O)C3CC(N)CCO3)CCN42)c1C(F)(F)F` (mixture of isomers), the IC50 at GTPase KRas stood at 14 µM. Moreover, the Ratio IC50 in data set [1] was 0.41.

Turning to `C=C1CN2CCC[C@@]2(COc2nc(N3CCN(C(=O)/C=C/c4cccc5c4CN4CCC5C4)C[C@@H]3C)c3cc(Cl)c(-c4nc(N)cc(C)c4C(F)(F)F)c(F)c3n2)C1` (stereo in doubt; form 1) [listing 1 of 2 here], the Ratio IC50 in data set [1] is 29.

For `C=C1CN2CCC[C@@]2(COc2nc(N3CCN(C(=O)/C=C/c4cccc5c4CN4CCC5C4)C[C@@H]3C)c3cc(Cl)c(-c4nc(N)cc(C)c4C(F)(F)F)c(F)c3n2)C1` (stereo in doubt; form 2) [listing 1 of 2 here], in data set [1], the Ratio IC50 was determined as 27.

In data set [2], `C=C1CN2CCC[C@@]2(COc2nc(N3CCN(C(=O)/C=C/c4cccc5c4CNCC5)C[C@@H]3C)c3cc(Cl)c(-c4nc(N)cc(C)c4C(F)(F)F)c(F)c3n2)C1` displayed a t1/2 of 7.6 h. In addition, the Vdss in data set [3] worked out at 0.9 L/kg. For the same compound, the values for the IC50 in the data set with HCT-116 and at GTPase KRas were 2.1 µM and 0.69 µM, respectively.

For the compound `Cc1cc(N)nc(-c2cc3nc(OC[C@@H]4CCCN4C)nc4c3c(c2Cl)OC[C@@H]2CN(C(=O)C3CC35CCNCC5)CCN42)c1C(F)(F)F` (mixture of isomers), the IC50 at GTPase KRas is 2.4 µM. The Ratio IC50 in data set [1] was 2.1.

For the compound `Cc1cc(N)nc(-c2cc3nc(OC[C@@H]4CCCN4C)nc4c3c(c2Cl)OC[C@@H]2CN(C(=O)C#CC3CCNC3)CCN42)c1C(F)(F)F` (mixture of isomers), the IC50 on GTPase KRas came to 1.6 µM. Moreover, the Ratio IC50 in data set [1] was determined as 2.3.

Turning to `Cc1cc(N)nc(-c2cc3nc(OC[C@@H]4CCCN4C)nc4c3c(c2Cl)OC[C@@H]2CN(C(=O)C[C@H]3CCC35CNC5)CCN42)c1C(F)(F)F`, the IC50 on GTPase KRas was found to be 3.5 µM. Further, the Ratio IC50 in data set [1] came to 1.1.

In the case of `C=C1CN2CCC[C@@]2(COc2nc(N3CCN(C(=O)/C=C/c4cc(C5CCN(C)CC5)c(C)cn4)C[C@@H]3C)c3cc(Cl)c(-c4nc(N)cc(C)c4C(F)(F)F)c(F)c3n2)C1`, the IC50 at GTPase KRas is 0.34 µM. Moreover, the Ratio IC50 in data set [1] worked out at 15.

On to `Cc1cc(N)nc(-c2cc3nc(OC[C@@H]4CCCN4C)nc4c3c(c2Cl)OC[C@@H]2CN(C(=O)CCC3(N)CCOC3)CCN42)c1C(F)(F)F` (mixture of isomers), for which, at GTPase KRas, the IC50 is 1.3 µM. Besides, the Ratio IC50 in data set [1] is 2.5.

On to `C=C1CN2CCC[C@@]2(COc2nc(N3CCN(C(=O)/C=C/c4cccc5c4CN4CCC5C4)C[C@@H]3C)c3cc(Cl)c(-c4nc(N)cc(C)c4C(F)(F)F)c(F)c3n2)C1` (stereo in doubt; form 2) [listing 2 of 2 here], for which the IC50 at GTPase KRas amounted to 0.55 µM.

On to `C=C1CN2CCC[C@@]2(COc2nc(N3CCN(C(=O)/C=C/c4cc(CN(C)C)c(C)cn4)C[C@@H]3C)c3cc(Cl)c(-c4nc(N)cc(C)c4C(F)(F)F)c(F)c3n2)C1`, for which the IC50 at GTPase KRas is 0.52 µM. In addition, the Ratio IC50 in data set [1] is 9.2.

Turning to `C=C1CN2CCC[C@@]2(COc2nc3c4c(c(Cl)c(-c5nc(N)cc(C)c5C(F)(F)F)cc4n2)OC[C@@H]2CN(C(=O)/C=C/c4nccc5c4CNCC5)CCN32)C1`, the IC50 on GTPase KRas is 0.013 µM. Moreover, the Ratio IC50 in data set [1] amounted to 7.3.

For `Cc1cc(N)nc(-c2cc3nc(OC[C@@H]4CCCN4C)nc4c3c(c2Cl)OC[C@@H]2CN(C(=O)C3CCC5(CNC5)O3)CCN42)c1C(F)(F)F` (mixture of isomers), the IC50 at GTPase KRas worked out at 1.6 µM. In addition, in data set [1], the Ratio IC50 was 2.5.

With `Cc1cc(N)nc(-c2cc3nc(OC[C@@H]4CCCN4C)nc4c3c(c2Cl)OC[C@@H]2CN(C(=O)C3CC35CNC5)CCN42)c1C(F)(F)F` (mixture of isomers), the IC50 on GTPase KRas was 2.4 µM. Besides, the Ratio IC50 in data set [1] worked out at 1.3.

Turning to `Cc1cc(N)nc(-c2cc3nc(OC[C@@H]4CCCN4C)nc4c3c(c2Cl)OC[C@@H]2CN(C(=O)CCN)CCN42)c1C(F)(F)F`, the IC50 on GTPase KRas is 2.7 µM. The Ratio IC50 in data set [1] was found to be 2.5.

`C=C1CN2CCC[C@@]2(COc2nc(N3CCN(C(=O)/C=C/c4cccc5c4CN4CCC5C4)C[C@@H]3C)c3cc(Cl)c(-c4nc(N)cc(C)c4C(F)(F)F)c(F)c3n2)C1` (stereo in doubt; form 1) [listing 2 of 2 here]: the IC50 at GTPase KRas was 0.41 µM.

Consider `C=C1CN2CCC[C@@]2(COc2nc(N3CCN(C(=O)/C=C/c4cc(CNC)c(C)cn4)C[C@@H]3C)c3cc(Cl)c(-c4nc(N)cc(C)c4C(F)(F)F)c(F)c3n2)C1`, for which, at GTPase KRas, the IC50 is 0.5 µM. Also, the Ratio IC50 in data set [1] was 9.6.

Take `COC1CC(N)(C(=O)N2CCN3c4nc(OC[C@@H]5CCCN5C)nc5cc(-c6nc(N)cc(C)c6C(F)(F)F)c(Cl)c(c45)OC[C@@H]3C2)C1` (mixture of isomers): the IC50 on GTPase KRas was found to be 0.88 µM. Also, the Ratio IC50 in data set [1] is 1.5.

For the compound `Cc1cc(N)nc(-c2cc3nc(OC[C@@H]4CCCN4C)nc4c3c(c2Cl)OC[C@@H]2CN(C(=O)CC[C@H]3CCCCN3)CCN42)c1C(F)(F)F`, the IC50 at GTPase KRas was 2 µM. In addition, in data set [1], the Ratio IC50 came out at 2.3.

Take `Cc1cc(N)nc(-c2cc3nc(OC[C@@H]4CCCN4C)nc4c3c(c2Cl)OC[C@@H]2CN(C(=O)CC3CCNCC3)CCN42)c1C(F)(F)F`: the IC50 on GTPase KRas is 4.8 µM. Besides, in data set [1], the Ratio IC50 was found to be 2.

Take `Cc1cc(N)nc(-c2cc3nc(OC[C@@H]4CCCN4C)nc4c3c(c2Cl)OC[C@@H]2CN(C(=O)[C@@H]3CC[C@H]3N)CCN42)c1C(F)(F)F`: on GTPase KRas, the IC50 came out at 3 µM. For the same compound, in data set [1], the Ratio IC50 was determined as 1.5.
